Measurements as given in patent publication US20240180900A1, “COMPOUNDS AND METHODS FOR THE TARGETED DEGRADATION OF ANDROGEN RECEPTOR” (Arvinas Operations, Inc., priority 2022, published 2024).

Legend:
AR [1] = target: T1, AR (Homo sapiens, UniProt P10275); experiment: selectivity screening panel: AR binding; settings: 1 μM
T1 sequence (P10275 1-920): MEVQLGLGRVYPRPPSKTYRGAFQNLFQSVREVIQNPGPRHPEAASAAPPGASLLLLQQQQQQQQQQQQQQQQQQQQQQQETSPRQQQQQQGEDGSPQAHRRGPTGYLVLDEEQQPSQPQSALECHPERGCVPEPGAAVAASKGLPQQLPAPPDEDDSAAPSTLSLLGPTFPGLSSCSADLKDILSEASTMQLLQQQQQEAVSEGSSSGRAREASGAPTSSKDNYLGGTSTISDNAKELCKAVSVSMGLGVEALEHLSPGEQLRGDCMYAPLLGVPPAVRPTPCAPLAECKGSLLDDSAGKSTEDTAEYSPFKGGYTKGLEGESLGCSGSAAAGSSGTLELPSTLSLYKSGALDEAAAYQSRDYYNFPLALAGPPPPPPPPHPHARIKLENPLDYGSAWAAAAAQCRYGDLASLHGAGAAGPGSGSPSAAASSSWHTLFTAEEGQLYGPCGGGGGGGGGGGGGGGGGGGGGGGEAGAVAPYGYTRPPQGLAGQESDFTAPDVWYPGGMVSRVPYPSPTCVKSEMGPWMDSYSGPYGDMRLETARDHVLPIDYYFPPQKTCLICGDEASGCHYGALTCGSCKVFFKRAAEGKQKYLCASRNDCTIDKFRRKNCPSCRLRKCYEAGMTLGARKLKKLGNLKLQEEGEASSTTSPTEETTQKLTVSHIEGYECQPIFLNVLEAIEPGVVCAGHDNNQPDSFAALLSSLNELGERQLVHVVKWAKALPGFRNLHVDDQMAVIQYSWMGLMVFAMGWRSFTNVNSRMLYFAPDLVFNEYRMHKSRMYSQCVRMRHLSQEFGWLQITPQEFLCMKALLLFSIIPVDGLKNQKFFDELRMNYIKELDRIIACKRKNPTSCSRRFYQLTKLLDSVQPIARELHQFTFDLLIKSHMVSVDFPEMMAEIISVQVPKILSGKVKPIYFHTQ
Method: Compound A was tested at 1 μM in a screening study to assess the interaction of Compound A with a panel of 44 targets, including receptors, ion channels, transporters, and enzymes. Any effect greater than 50% of the positive control for a target was considered to represent an interaction of the test compound with the target.

PSA = experiment: intracellular PSA ELISA in VCaP cells; assay type: cell-based; settings: Homo sapiens, CSS + 0.1 nM R1881, 48 hours, read-out: IC50, inhibiting PSA expression
Method: Intracellular prostate specific antigen (PSA) levels were determined using a PSA enzyme-linked immunosorbent assay (ELISA). […] The cell proliferation was determined using the CellTiter-Glo® assay. […] The CaspaseGlo® assay was carried out to measure the level of apoptosis in cells.
To evaluate the pharmacological effect of Compound A in vitro, PSA, cell proliferation, and apoptosis assays were carried out in VCaP cells.

AR M750T = target: T2, AR M750T (Homo sapiens, UniProt P10275, M750T); experiment: AR degradation in T-Rex-293 cell line, M750T; assay type: cell-based; settings: T-Rex-293, ELISA
T2 construct: expressed in transfected cells; host or cells: T-REx-293
T2 sequence (P10275 whole entry M750T): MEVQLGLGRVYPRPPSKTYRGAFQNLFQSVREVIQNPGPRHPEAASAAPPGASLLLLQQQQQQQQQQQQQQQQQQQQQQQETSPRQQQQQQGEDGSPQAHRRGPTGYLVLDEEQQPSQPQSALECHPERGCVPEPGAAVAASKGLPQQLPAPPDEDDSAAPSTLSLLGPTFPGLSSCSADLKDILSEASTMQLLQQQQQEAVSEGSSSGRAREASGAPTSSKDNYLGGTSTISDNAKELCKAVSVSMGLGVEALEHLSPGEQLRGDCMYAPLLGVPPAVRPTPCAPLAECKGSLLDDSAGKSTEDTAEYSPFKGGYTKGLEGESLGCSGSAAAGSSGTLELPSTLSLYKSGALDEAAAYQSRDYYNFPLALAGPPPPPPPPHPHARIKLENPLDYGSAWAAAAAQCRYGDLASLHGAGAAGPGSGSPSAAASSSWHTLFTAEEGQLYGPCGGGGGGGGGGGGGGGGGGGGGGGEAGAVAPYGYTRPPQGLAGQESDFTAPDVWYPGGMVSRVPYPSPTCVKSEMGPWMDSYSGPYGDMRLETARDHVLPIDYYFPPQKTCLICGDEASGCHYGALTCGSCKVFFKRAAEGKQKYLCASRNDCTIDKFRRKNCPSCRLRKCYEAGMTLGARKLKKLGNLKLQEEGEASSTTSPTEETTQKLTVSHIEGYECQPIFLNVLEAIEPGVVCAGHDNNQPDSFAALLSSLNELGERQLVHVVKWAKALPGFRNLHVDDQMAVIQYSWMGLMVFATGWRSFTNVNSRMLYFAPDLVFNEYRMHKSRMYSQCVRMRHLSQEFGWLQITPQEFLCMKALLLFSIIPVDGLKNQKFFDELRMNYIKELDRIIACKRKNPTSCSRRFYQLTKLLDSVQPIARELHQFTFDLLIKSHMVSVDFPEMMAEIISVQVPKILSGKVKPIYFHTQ
Description: (§1) FIG. 3 is a graph showing Compound A's ability to degrade clinically relevant mutated forms AR.
(§2) To assess the ability of Compound A to degrade variants of the AR, vectors expressing wild-type AR or mutant AR proteins harboring clinically observed mutations in the ligand binding domain (13 with single amino acid changes or 4 with 2 amino acid changes) (Azad A. A., Volik S. V., Wyatt A. W., et al. Androgen receptor gene aberrations in circulating cell-free DNA: biomarkers of therapeutic resistance in castration-resistant prostate cancer. Clin Cancer Res. 2015; 21:2315-2324; Robinson D., Van Allen E. M., Wu Y. M., et al. Integrative clinical genomics of advanced prostate cancer. Cell. 2015; 161:1215-1228; Ledet E. M., Lilly M. B., Sonpavde G., et al. Comprehensive analysis of AR alterations in circulating tumor DNA from patients with advanced prostate cancer. Oncologist.

AR M750V = target: T3, AR M750V (Homo sapiens, UniProt P10275, M750V); experiment: AR degradation in T-Rex-293 cell line, M750V; assay type: cell-based; settings: T-Rex-293, ELISA
T3 construct: expressed in transfected cells; host or cells: T-REx-293
T3 sequence (P10275 whole entry M750V): as the sequence (P10275 whole entry M750T) above, with T750V counted along it
Description: as §1, §2

AR W742L = target: T4, AR W742L (Homo sapiens, UniProt P10275, W742L); experiment: AR degradation in T-Rex-293 cell line, W742L; assay type: cell-based; settings: T-Rex-293, ELISA
T4 construct: expressed in transfected cells; host or cells: T-REx-293
T4 sequence (P10275 whole entry W742L): as the sequence (P10275 whole entry M750T) above, with W742L, T750M counted along it
Description: as §1, §2

AR [2] = target: T1, AR; experiment: AR degradation in castrated mice bearing VCaP xenografts (western blotting); assay type: in vivo, mouse; parameters: from tissue; host or cells: VCaP xenograft tumour tissue from castrated CB17/SCID mice
Method: Tumors were harvested 16 hours post-dose and tumor AR level was established by western blotting. Antibody recognizing human mitochondria specific antibody (Mito.C) was employed as a loading control. The quantitation of AR levels from the western blot is shown (lower panel).
Castration eliminates testosterone produced by the testes. Upon castration, prostate tumor cells implanted in the mouse start to produce testosterone on their own, enabling their growth. The effect of Compound A on AR degradation in vivo was evaluated in castrated mice bearing VCaP xenografts. To recapitulate human CRPC, when the implanted tumors reached a volume of approximately 100 mm^3, the mice were surgically castrated. Three weeks after castration, mice were administered a single PO dose of Compound A at 10, 3, 1, 0.3, 0.1, 0.03, or 0 (vehicle) mg/kg via gavage. Sixteen hours after treatment, the tumor tissues were collected, and lysates were prepared to assess AR expression by western blotting. At Compound A doses of 10, 3, 1, 0.3, 0.1, and 0.03 mg/kg, AR was reduced on average by 96%, 91%, 81%, 73%, -5%, and 14%, respectively (FIG. 11), compared to vehicle control.

[3] = system: mutant AR proteins (ligand binding domain mutations); experiment: degradation of clinically relevant AR point mutants in HEK293 or T-REx-293 cells; assay type: cell-based, human; settings: stably transfected
Method: Plasmids expressing AR WT or the indicated AR mutants were stably transfected into HEK293 cells. Each cell line was treated with indicated concentrations of Compound A for 24 hours. AR levels were determined by AR ELISA without background subtraction. […]
as §2

VCaP tumor xenograft = VCaP tumor xenograft study in intact (non-castrated) mice; assay type: in vivo, mouse
Description: To mimic higher androgen levels found in an incomplete testosterone suppression environment, intact (non-castrated) mice were employed for a VCaP tumor xenograft study.

Q: Which results are given for `COc1cc(O[C@H]2C(C)(C)[C@H](NC(=O)c3ccc(N4CCC(CN5CCN(c6ccc(C(=O)N[C@H]7CCC(=O)NC7=O)c(F)c6)CC5)CC4)cc3)C2(C)C)ccc1C#N` [Compound A, 4-(4-((1-(4-(((1R,3R)-3-(4-cyano-3-methoxyphenoxy)-2,2,4,4-tetramethylcyclobutyl)carbamoyl)phenyl)piperidin-4-yl)methyl)piperazin-1-yl)-N—((S)-2,6-dioxopiperidin-3-yl)-2-fluorobenzamide]?
A: binding to AR, % of positive control testosterone (AR [1]): 98.6%; IC50 (PSA): 4 nM; DC50 (AR M750T): 0.6 nM; DC50 (AR M750V): 1.4 nM; DC50 (AR W742L): 2.3 nM; AR reduced on average vs vehicle control (AR [2]; single PO dose 0.03 mg/kg, 16 hours): 14%; AR reduced on average vs vehicle control (AR [2]; single PO dose 0.1 mg/kg, 16 hours): -5%; AR reduced on average vs vehicle control (AR [2]; single PO dose 0.3 mg/kg, 16 hours): 73%; AR reduced on average vs vehicle control (AR [2]; single PO dose 1 mg/kg, 16 hours): 81%; AR reduced on average vs vehicle control (AR [2]; single PO dose 3 mg/kg, 16 hours): 91%; AR reduced on average vs vehicle control (AR [2]; single PO dose 10 mg/kg, tumors 16 hours post-dose): 96%; degradation of all clinically relevant AR point mutants tested vs wild-type AR [3]: comparable to that observed for wild-type AR; tumor growth inhibition (TGI) (VCaP tumor xenograft; 1 mg/kg/day orally QD for 21 days): 34%; tumor growth inhibition (TGI) (VCaP tumor xenograft; 3 mg/kg/day orally QD for 21 days): 74%; tumor growth inhibition (TGI) (VCaP tumor xenograft; 10 mg/kg/day orally QD for 21 days): 98%
